Measurements published in US20060069132A1, “Azolecarboxamide herbicides” (priority 2004, published 2006).

Experiments:
wheat = test: Test B postemergence herbicide test; type: in vivo, Triticum aestivum; design: key to Wheat plant response rating: 0 = no effect, 100 = complete control; conditions: for Plant response rating, Wheat: 500 g ai/ha, visual rating after 13 to 15 days
Method in brief: (§1)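 Postemergence plants were sprayed with formulated test chemicals at 2 to 18 cm height (1- to 4-leaf stage); paddy species were grown to the 2-leaf stage. After 13 to 15 days in a greenhouse, injury was rated visually against untreated controls on a 0–100 scale (0 = no effect, 100 = complete control).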

[1] = test system: small flower umbrella sedge; test: Test B flooded paddy test; type: in vivo, Cyperus difformis; conditions: 1000 g ai/ha, visual rating, scale 0 to 100 (0 no effect, 100 complete control), 13 to 15 days
Method in brief: (§2)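 Read-out: visual comparison with controls, scored 0 to 100, where 100 means complete control and 0 no effect. Formulated chemicals were applied postemergence to plants 2–18 cm tall (1- to 4-leaf), or to flooded-paddy plants at the 2-leaf stage, then held 13 to 15 days under glass.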

morningglory = test: Test B pre-/postemergence herbicide test; type: in vivo, Ipomoea coccinea
Method in brief: (§3)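 Pre: seeds sown, then sprayed. Post: 1–4-leaf plants (2–18 cm) sprayed at the same time. Paddy: flooded, treated at 2-leaf stage. Formulation: non-phytotoxic solvent with surfactant. Greenhouse 13–15 days; visual 0–100 score relative to controls.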

large crabgrass = test: Test B pre-/postemergence herbicide test; type: in vivo, Digitaria sanguinalis
Method in brief: (§4)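 Visual rating, 0 (no effect) to 100 (complete control), versus untreated controls after 13–15 d in greenhouse. Pre- and postemergence applications (postemergence plants 2–18 cm, 1–4 leaves); flooded paddy arm at 2-leaf stage. Compounds in non-phytotoxic solvent plus surfactant.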

ducksalad = test: Test B flooded paddy test; type: in vivo, Heteranthera limosa; conditions: 1000 g ai/ha, visual rating, scale 0 to 100 (0 no effect, 100 complete control), 13 to 15 days
Description: At the same time, plants selected from these crop and weed species and also blackgrass (Alopecurus myosuroides Huds.), wheat (Triticum aestivum L.) and wild oat (Avena fatua L.) were treated with postemergence applications of test chemicals formulated in the same manner. Plants ranged in height from 2 to 18 cm (1- to 4-leaf stage) for postemergence treatments. Plant species in the flooded paddy test consisted of rice (Oryza sativa L.), small flower umbrella sedge (Cyperus difformis L.), ducksalad (Heteranthera limosa (Sw.) Willd.) and barnyardgrass (Echinochloa crus-galli (L.) Beauv.) grown to the 2-leaf stage for testing. Treated plants and controls were maintained in a greenhouse for 13 to 15 days, after which time all species were compared to controls and visually evaluated. Plant response ratings, summarized in Table B, are based on a scale of 0 to 100 where 0 is no effect and 100 is complete control. A dash (-) response means no test result.

lambsquarters = test: Test B pre-/postemergence herbicide test; type: in vivo, Chenopodium album
Method in brief: as §4

corn = test: Test B pre-/postemergence herbicide test; type: in vivo, Zea mays
Method in brief: as §4

barnyardgrass [2] = test: Test B flooded paddy test; type: in vivo, Echinochloa crus-galli; conditions: 1000 g ai/ha, visual rating, scale 0 to 100 (0 no effect, 100 complete control), 13 to 15 days
Method in brief: as §2

pigweed = test: Test B pre-/postemergence herbicide test; type: in vivo, Amaranthus retroflexus
Method in brief: as §4

velvetleaf = test: Test B pre-/postemergence herbicide test; type: in vivo, Abutilon theophrasti
Method in brief: as §4

wild oat = test: Test B postemergence herbicide test; type: in vivo, Avena fatua; conditions: for Plant response rating, Oat, Wild: 500 g ai/ha, visual rating after 13 to 15 days
Method in brief: as §1

Surinam grass = test: Test B pre-/postemergence herbicide test; type: in vivo, Urochloa decumbens
Method in brief: as §4

barnyardgrass [3] = test: Test B pre-/postemergence herbicide test; type: in vivo, Echinochloa crus-galli
Method in brief: as §3

rice = test: Test B flooded paddy test; type: in vivo, Oryza sativa; conditions: 1000 g ai/ha, visual rating, scale 0 to 100 (0 no effect, 100 complete control), 13 to 15 days
Method in brief: as §2

blackgrass = test: Test B postemergence herbicide test; type: in vivo, Alopecurus myosuroides; conditions: for Plant response rating, Blackgrass: 500 g ai/ha, visual rating after 13 to 15 days
Method in brief: as §2

giant foxtail = test: Test B pre-/postemergence herbicide test; type: in vivo, Setaria faberi
Method in brief: as §4

cocklebur = test: Test B pre-/postemergence herbicide test; type: in vivo, Xanthium strumarium
Method in brief: as §3

[4] = Postemergence, scale 0 (no effect) to 100 (complete control)
[5] = Preemergence, 500 g ai/ha, scale 0 to 100
[6] = preemergence, 125 g ai/ha, 0 to 100 scale, 0 is no effect, 100 is complete control
[7] = Postemergence, 125 g ai/ha, scale 0 (no effect) to 100 (complete control)
[8] = Postemergence, 500 g ai/ha, visual rating after 13 to 15 days, scale 0 (no effect) to 100 (complete control)
[9] = 250 g ai/ha, scale 0 to 100, 0 no effect, 100 complete control, preemergence
[10] = Postemergence, 250 g ai/ha, scale 0 (no effect) to 100 (complete control)
[11] = postemergence, 62 g ai/ha, scale 0 to 100
[12] = postemergence, 125 g ai/ha, visual rating, scale 0 (no effect) to 100 (complete control)
[13] = 500 g ai/ha, visual rating 0-100, 0 no effect, 100 complete control, preemergence

C=Cn1nc(C(C)(C)C)cc1C(=O)Nc1cccc(C(=O)NCC(F)(F)F)c1 [Compound 37]
Plant response rating, Wheat (wheat; [4]): 20
Sedge, Umbrella plant response rating [1]: 90
Morningglory plant response rating (morningglory; [5]): 0
Plant response rating, Morningglory (morningglory; [6]): 0
Crabgrass, Large plant response rating (large crabgrass; [7]): 10
Plant response rating, Crabgrass, Large (large crabgrass; [8]): 20
Crabgrass, Large plant response rating (large crabgrass; [5]): 90
Ducksalad plant response rating (ducksalad): 60
Lambsquarters plant response rating (lambsquarters; [7]): 80
Plant response rating, Lambsquarters (lambsquarters; [8]): 90
Lambsquarters plant response rating (lambsquarters; [5]): 100
Plant response rating, Lambsquarters (lambsquarters; [6]): 10
Corn plant response rating (corn; [5]): 10
Barnyardgrass plant response rating (barnyardgrass [2]): 30
Plant response rating, Pigweed (pigweed; [8]): 90
Pigweed plant response rating (pigweed; [5]): 100
Plant response rating, Pigweed (pigweed; [6]): 80
Plant response rating, Velvetleaf (velvetleaf; [8]): 40
Velvetleaf plant response rating (velvetleaf; [5]): 20
Plant response rating, Velvetleaf (velvetleaf; [6]): 20
Oat, Wild plant response rating (wild oat; [7]): 10
Plant response rating, Oat, Wild (wild oat; [4]): 20
Plant response rating, Surinam Grass (Surinam grass; [8]): 20
Surinam Grass plant response rating (Surinam grass; [5]): 40
Plant response rating, Surinam Grass (Surinam grass; [6]): 10
Barnyardgrass plant response rating (barnyardgrass [3]; [7]): 20
Plant response rating, Barnyardgrass (barnyardgrass [3]; [8]): 20
Barnyardgrass plant response rating (barnyardgrass [3]; [5]): 60
Rice plant response rating (rice): 50
Blackgrass plant response rating (blackgrass; [7]): 10
Plant response rating, Blackgrass (blackgrass; [4]): 10
Foxtail, Giant plant response rating (giant foxtail; [7]): 20
Plant response rating, Foxtail, Giant (giant foxtail; [8]): 20
Foxtail, Giant plant response rating (giant foxtail; [5]): 60
Plant response rating, Foxtail, Giant (giant foxtail; [6]): 20
Cocklebur plant response rating (cocklebur; [7]): 60
Plant response rating, Cocklebur (cocklebur; [8]): 80
Cocklebur plant response rating (cocklebur; [5]): 0

CCOC(=O)c1ccc(F)c(NC(=O)c2cc(C(C)C)nn2CC)c1 [Compound 73]
Wheat plant response rating (wheat; [9]): 20
Wheat plant response rating (wheat; [10]): 30
Wheat plant response rating (wheat; [11]): 20
Sedge, Umbrella plant response rating [1]: 80
Morningglory plant response rating (morningglory; [10]): 10
Morningglory plant response rating (morningglory; [11]): 10
Crabgrass, Large plant response rating (large crabgrass; [10]): 10
Crabgrass, Large plant response rating (large crabgrass; [11]): 0
Ducksalad plant response rating (ducksalad): 10
Lambsquarters plant response rating (lambsquarters; [10]): 10
Lambsquarters plant response rating (lambsquarters; [11]): 0
Corn plant response rating (corn; [10]): 30
Corn plant response rating (corn; [11]): 0
Barnyardgrass plant response rating (barnyardgrass [2]): 30
Pigweed plant response rating (pigweed; [10]): 20
Pigweed plant response rating (pigweed; [11]): 10
Velvetleaf plant response rating (velvetleaf; [10]): 50
Velvetleaf plant response rating (velvetleaf; [11]): 30
Oat, Wild plant response rating (wild oat; [10]): 40
Oat, Wild plant response rating (wild oat; [11]): 20
Surinam Grass plant response rating (Surinam grass; [10]): 10
Surinam Grass plant response rating (Surinam grass; [11]): 10
Barnyardgrass plant response rating (barnyardgrass [3]; [10]): 10
Barnyardgrass plant response rating (barnyardgrass [3]; [11]): 0
Rice plant response rating (rice): 50
Blackgrass plant response rating (blackgrass; [10]): 30
Blackgrass plant response rating (blackgrass; [11]): 30
Foxtail, Giant plant response rating (giant foxtail; [10]): 30
Foxtail, Giant plant response rating (giant foxtail; [11]): 10
Cocklebur plant response rating (cocklebur; [10]): 20
Cocklebur plant response rating (cocklebur; [11]): 20

CCOC(=O)c1ccc(F)c(NC(=O)c2cc(C3CC3)nn2CC)c1 [Compound 74]
Wheat plant response rating (wheat; [9]): 0
Wheat plant response rating (wheat; [10]): 20
Wheat plant response rating (wheat; [11]): 20
Sedge, Umbrella plant response rating [1]: 70
Morningglory plant response rating (morningglory; [10]): 10
Morningglory plant response rating (morningglory; [11]): 0
Crabgrass, Large plant response rating (large crabgrass; [10]): 10
Crabgrass, Large plant response rating (large crabgrass; [11]): 0
Ducksalad plant response rating (ducksalad): 0
Lambsquarters plant response rating (lambsquarters; [10]): 10
Lambsquarters plant response rating (lambsquarters; [11]): 0
Corn plant response rating (corn; [10]): 0
Corn plant response rating (corn; [11]): 0
Barnyardgrass plant response rating (barnyardgrass [2]): 0
Pigweed plant response rating (pigweed; [10]): 20
Pigweed plant response rating (pigweed; [11]): 20
Velvetleaf plant response rating (velvetleaf; [10]): 30
Velvetleaf plant response rating (velvetleaf; [11]): 0
Oat, Wild plant response rating (wild oat; [10]): 40
Oat, Wild plant response rating (wild oat; [11]): 30
Surinam Grass plant response rating (Surinam grass; [10]): 10
Surinam Grass plant response rating (Surinam grass; [11]): 0
Barnyardgrass plant response rating (barnyardgrass [3]; [10]): 0
Barnyardgrass plant response rating (barnyardgrass [3]; [11]): 0
Rice plant response rating (rice): 0
Blackgrass plant response rating (blackgrass; [10]): 50
Blackgrass plant response rating (blackgrass; [11]): 30
Foxtail, Giant plant response rating (giant foxtail; [10]): 10
Foxtail, Giant plant response rating (giant foxtail; [11]): 10
Cocklebur plant response rating (cocklebur; [10]): 0
Cocklebur plant response rating (cocklebur; [11]): 0

CCON=C(C)c1cccc(NC(=O)c2cc(C(C)(C)C)nn2C)c1 [Compound 105]
Plant response rating, Wheat (wheat; [4]): 0
Wheat plant response rating (wheat; [12]): 0
Sedge, Umbrella plant response rating [1]: 70
Plant response rating, Morningglory (morningglory; [13]): 10
Plant response rating, Morningglory (morningglory; [8]): 10
Morningglory plant response rating (morningglory; [12]): 0
Plant response rating, Morningglory (morningglory; [6]): 0
Plant response rating, Crabgrass, Large (large crabgrass; [13]): 90
Plant response rating, Crabgrass, Large (large crabgrass; [8]): 0
Crabgrass, Large plant response rating (large crabgrass; [12]): 0
Plant response rating, Crabgrass, Large (large crabgrass; [6]): 0
Ducksalad plant response rating (ducksalad): 70
Plant response rating, Lambsquarters (lambsquarters; [13]): 80
Plant response rating, Lambsquarters (lambsquarters; [8]): 80
Lambsquarters plant response rating (lambsquarters; [12]): 50
Plant response rating, Lambsquarters (lambsquarters; [6]): 0
Plant response rating, Corn (corn; [13]): 0
Plant response rating, Corn (corn; [8]): 0
Corn plant response rating (corn; [12]): 0
Plant response rating, Corn (corn; [6]): 0
Barnyardgrass plant response rating (barnyardgrass [2]): 20
Plant response rating, Pigweed (pigweed; [13]): 80
Plant response rating, Pigweed (pigweed; [8]): 80
Pigweed plant response rating (pigweed; [12]): 0
Plant response rating, Pigweed (pigweed; [6]): 0
Plant response rating, Velvetleaf (velvetleaf; [13]): 0
Plant response rating, Velvetleaf (velvetleaf; [8]): 0
Velvetleaf plant response rating (velvetleaf; [12]): 0
Plant response rating, Velvetleaf (velvetleaf; [6]): 0
Plant response rating, Oat, Wild (wild oat; [4]): 10
Oat, Wild plant response rating (wild oat; [12]): 0
Plant response rating, Surinam Grass (Surinam grass; [13]): 10
Plant response rating, Surinam Grass (Surinam grass; [8]): 10
Surinam Grass plant response rating (Surinam grass; [12]): 0
Plant response rating, Surinam Grass (Surinam grass; [6]): 0
Plant response rating, Barnyardgrass (barnyardgrass [3]; [13]): 30
Plant response rating, Barnyardgrass (barnyardgrass [3]; [8]): 0
Barnyardgrass plant response rating (barnyardgrass [3]; [12]): 0
Plant response rating, Barnyardgrass (barnyardgrass [3]; [6]): 0
Rice plant response rating (rice): 0
Plant response rating, Blackgrass (blackgrass; [4]): 0
Blackgrass plant response rating (blackgrass; [12]): 0
Plant response rating, Foxtail, Giant (giant foxtail; [13]): 10
Plant response rating, Foxtail, Giant (giant foxtail; [8]): 0
Foxtail, Giant plant response rating (giant foxtail; [12]): 0
Plant response rating, Foxtail, Giant (giant foxtail; [6]): 0
Plant response rating, Cocklebur (cocklebur; [13]): 0
Plant response rating, Cocklebur (cocklebur; [8]): 30
Cocklebur plant response rating (cocklebur; [12]): 30
Plant response rating, Cocklebur (cocklebur; [6]): 0
